Results published in patent US9737502B2, “Calebin A for hepatic steatosis” (SAMI LABS LIMITED, priority 2011, dated 2017).
Marks after values point to notes of the source that are not given here.

Columns and labels:
[1] = Study 2: body weight and liver weight in high fat diet induced obese mice; assay type: in vivo, C57 mice; details: for LIVER WEIGHT: male group, Day 57, High fat diet Control 1.60 ± 0.35
From the text: The animals were fed ad libitum with AMRUT Laboratory Animal Feed manufactured by Pranav Agro Industries Limited, Sangli, Maharastra throughout the acclimatization. Open Source Diet D12450B diet (with 10 kcal % Fat) and Open Source Diet D12492 High fat diet (with 60 kcal % Fat) manufactured by Research Diet Inc, USA procured from Indus Marketing, Hyderabad, Andhra Pradesh, INDIA was used for induction of obesity and the main study.
The animals were divided into 5 groups viz., Group 1, 2, 3, 4 and 5 consisting of 10 animals (5 male and 5 female) each.
The G1 Control group animals were fed with normal control diet feed D12450B containing 10 kcal % fat and the G2 to G5 group animals were fed with high fat diet feed D12492 containing 60 kcal % fat during the induction of obesity and during main study.
The main study was started after the induction of obesity. The 3 doses of Calebin A was administered to animals from Day 29 daily consecutively for a period of 28 days. The feeding of diets continued in the main study in a similar way as performed in induction of obesity. The G1 Control and G2 High fat diet control group animals were administered with 0.5% CMC (Carboxy Methyl Cellulose) while other group animals received test item from Day 29 to Day 56 of the study period. The dose volume of administration was maintained according to the weekly body weight of individual animals. The total duration of the study was 61 days (5 days Acclimatization period+28 days Induction of obesity+28 days Main study).
Individual animal body weights were recorded on the day of receipt on Day 1 and weekly (±1 day) thereafter during the study period.
Further, after completion of the study period (Day 57) the animals were humanely sacrificed by exposure to excess CO2 in gas chamber and organ weights were noted. The brain, thymus, liver, adrenals, kidneys (paired), spleen, heart and ovaries/testes (paired) from all animals were trimmed off any adherent tissue, as appropriate and weighed wet as soon as possible to avoid drying. While in general, there was no statistically significant difference in organ weights in males and females, organ specific improvements in weight, example for liver in the male group was observable (See TABLE X). […] It may be noted that Behnke, A. R. 1953. Lean body mass. A.M.A. Arch. Int. Med. 91, 585 indicates liver as an index of lean body mass promotion and H. F. Kraybill et al, J ANIM SCI 1954, 13:548-555 indicate that other visceral organs may also be equally predictive of lean body mass promotion. It is quite possible that statistical significance in terms of sustainable increase in organ weights without indications of toxicity may be achieved with a larger sample size (more number of tested animals) over extended testing periods.

[2] = test system: epididymal fat (adipocytes); experiment: Adipocyte size in epididymal fat of HFD mice (H&E histology); assay type: in vivo, C57BL/6J mice; details: Calebin A 0.25% and 1%, 12 weeks
Description: Fully differentiated adipocytes (8 days) previously untreated with Calebin A as described in procedural steps outlined in Example IV were treated with Calebin A at concentrations of 5-30 μM. Lipolysis was linked to the breakdown of lipids into glycerol that was released into the cell culture medium and detected thereof. […] Thus, in another most preferred embodiment, the present invention relates to a method of inducing lipolysis in mammalian adipocytes, said method comprising the step of treating mammalian adipocytes with varying concentrations of Calebin A to bring about the effect of dose dependant lipolysis in said adipocytes. […] Epididymal fat pads were dissected and fixed in 10% buffered formalin for at least 24 hours, then dehydrated with a sequence of ethanol solutions and processed for embedding in paraffin. Sections of 5-6 μm in thickness were cut, de-paraffinized, rehydrated, stained with haematoxylin & eosin (H&E) and subjected to photomicroscopic assessment. Adipocyte size was determined using a Nikon light microscope (Japan) equipped with an ocular micrometer at 200× magnification in 10 random fields per section. […]

SMILES: COc1cc(/C=C/C(=O)COC(=O)/C=C/c2ccc(O)c(OC)c2)ccc1O [Calebin A]
- BODY WEIGHT ([1]; females, G3 5 mg/kg + High fat diet, Day 1 (obesity induction, before dosing)): 22.36 ± 0.65 grams
- BODY WEIGHT ([1]; females, G3 5 mg/kg + High fat diet, Day 8 (obesity induction, before dosing)): 23.18 ± 0.79 grams
- BODY WEIGHT ([1]; females, G3 5 mg/kg + High fat diet, Day 15 (obesity induction, before dosing)): 24.36 ± 0.87 grams
- BODY WEIGHT ([1]; females, G3 5 mg/kg + High fat diet, Day 22 (obesity induction, before dosing)): 25.66 ± 0.48 grams
- BODY WEIGHT ([1]; females, G3 5 mg/kg + High fat diet, Day 29 (start of daily dosing)): 27.40*^a ± grams
- BODY WEIGHT ([1]; females, G3 5 mg/kg + High fat diet, Day 36 (dosing Day 29-56)): 28.18**^a ± grams
- BODY WEIGHT ([1]; females, G3 5 mg/kg + High fat diet, Day 43 (dosing Day 29-56)): 28.46*^a,**^b ± grams
- BODY WEIGHT ([1]; females, G3 5 mg/kg + High fat diet, Day 50 (dosing Day 29-56)): 28.20***^b ± grams
- BODY WEIGHT ([1]; females, G3 5 mg/kg + High fat diet, Day 56 (dosing Day 29-56)): 28.12***^b ± grams
- BODY WEIGHT ([1]; females, G4 10 mg/kg + High fat diet, Day 1 (obesity induction, before dosing)): 23.16 ± 0.99 grams
- BODY WEIGHT ([1]; females, G4 10 mg/kg + High fat diet, Day 8 (obesity induction, before dosing)): 24.16 ± 1.29 grams
- BODY WEIGHT ([1]; females, G4 10 mg/kg + High fat diet, Day 15 (obesity induction, before dosing)): 25.62 ± 1.26 grams
- BODY WEIGHT ([1]; females, G4 10 mg/kg + High fat diet, Day 22 (obesity induction, before dosing)): 26.76 ± 1.27 grams
- BODY WEIGHT ([1]; females, G4 10 mg/kg + High fat diet, Day 29 (start of daily dosing)): 28.46***^a ± grams
- BODY WEIGHT ([1]; females, G4 10 mg/kg + High fat diet, Day 36 (dosing Day 29-56)): 28.64***^a ± grams
- BODY WEIGHT ([1]; females, G4 10 mg/kg + High fat diet, Day 43 (dosing Day 29-56)): 28.16*^a,***^b ± grams
- BODY WEIGHT ([1]; females, G4 10 mg/kg + High fat diet, Day 50 (dosing Day 29-56)): 27.54***^b ± grams
- BODY WEIGHT ([1]; females, G4 10 mg/kg + High fat diet, Day 56 (dosing Day 29-56)): 27.04***^b ± grams
- BODY WEIGHT ([1]; females, G5 20 mg/kg + High fat diet, Day 1 (obesity induction, before dosing)): 23.52 ± 1.10 grams
- BODY WEIGHT ([1]; females, G5 20 mg/kg + High fat diet, Day 8 (obesity induction, before dosing)): 24.66 ± 1.24 grams
- BODY WEIGHT ([1]; females, G5 20 mg/kg + High fat diet, Day 15 (obesity induction, before dosing)): 26.26 ^a ± 1.05 ^ grams
- BODY WEIGHT ([1]; females, G5 20 mg/kg + High fat diet, Day 22 (obesity induction, before dosing)): 27.26 ^a ± 1.25 ^ grams
- BODY WEIGHT ([1]; females, G5 20 mg/kg + High fat diet, Day 29 (start of daily dosing)): 28.74***^a ± grams
- BODY WEIGHT ([1]; females, G5 20 mg/kg + High fat diet, Day 36 (dosing Day 29-56)): 28.40**^a ± grams
- BODY WEIGHT ([1]; females, G5 20 mg/kg + High fat diet, Day 43 (dosing Day 29-56)): 27.80***^b ± grams
- BODY WEIGHT ([1]; females, G5 20 mg/kg + High fat diet, Day 50 (dosing Day 29-56)): 27.44***^b ± grams
- BODY WEIGHT ([1]; females, G5 20 mg/kg + High fat diet, Day 56 (dosing Day 29-56)): 27.10***^b ± grams
- effect on body weights of high fat diet induced obese animals ([1]; male and female C57 animals, 5, 10 and 20 mg/kg body weight): had an effect in decreasing the body weights
- LIVER WEIGHT ([1]; G3 5 mg/kg + High fat diet): 1.41 ± 0.17 g
- LIVER WEIGHT ([1]; G4 10 mg/kg + High fat diet): 1.25 ± 0.17 g
- LIVER WEIGHT ([1]; G5 20 mg/kg + High fat diet): 1.79 ± 0.19 g
- BODY WEIGHT ([1]; males, G3 5 mg/kg + High fat diet, Day 1 (obesity induction, before dosing)): 25.02 ± 1.45 grams
- BODY WEIGHT ([1]; males, G3 5 mg/kg + High fat diet, Day 8 (obesity induction, before dosing)): 25.78 ± 1.14 grams
- BODY WEIGHT ([1]; males, G3 5 mg/kg + High fat diet, Day 15 (obesity induction, before dosing)): 27.68 ± 0.95 grams
- BODY WEIGHT ([1]; males, G3 5 mg/kg + High fat diet, Day 22 (obesity induction, before dosing)): 29.98**^a ± 1.03 grams
- BODY WEIGHT ([1]; males, G3 5 mg/kg + High fat diet, Day 29 (start of daily dosing)): 30.92**^a ± grams
- BODY WEIGHT ([1]; males, G3 5 mg/kg + High fat diet, Day 36 (dosing Day 29-56)): 31.70*^a ± grams
- BODY WEIGHT ([1]; males, G3 5 mg/kg + High fat diet, Day 43 (dosing Day 29-56)): 30.84***^b ± grams
- BODY WEIGHT ([1]; males, G3 5 mg/kg + High fat diet, Day 50 (dosing Day 29-56)): 30.04***^b ± grams
- BODY WEIGHT ([1]; males, G3 5 mg/kg + High fat diet, Day 56 (dosing Day 29-56)): 29.98***^b ± grams
- BODY WEIGHT ([1]; males, G4 10 mg/kg + High fat diet, Day 1 (obesity induction, before dosing)): 25.28 ± 0.88 grams
- BODY WEIGHT ([1]; males, G4 10 mg/kg + High fat diet, Day 8 (obesity induction, before dosing)): 25.82 ± 0.91 grams
- BODY WEIGHT ([1]; males, G4 10 mg/kg + High fat diet, Day 15 (obesity induction, before dosing)): 27.58 ± 0.65 grams
- BODY WEIGHT ([1]; males, G4 10 mg/kg + High fat diet, Day 22 (obesity induction, before dosing)): 29.92**^a ± 0.97 grams
- BODY WEIGHT ([1]; males, G4 10 mg/kg + High fat diet, Day 29 (start of daily dosing)): 31.02**^a ± grams
- BODY WEIGHT ([1]; males, G4 10 mg/kg + High fat diet, Day 36 (dosing Day 29-56)): 31.06*^b ± grams
- BODY WEIGHT ([1]; males, G4 10 mg/kg + High fat diet, Day 43 (dosing Day 29-56)): 29.80***^b ± grams
- BODY WEIGHT ([1]; males, G4 10 mg/kg + High fat diet, Day 50 (dosing Day 29-56)): 28.98***^b ± grams
- BODY WEIGHT ([1]; males, G4 10 mg/kg + High fat diet, Day 56 (dosing Day 29-56)): 28.62***^b ± grams
- BODY WEIGHT ([1]; males, G5 20 mg/kg + High fat diet, Day 1 (obesity induction, before dosing)): 25.88 ± 1.25 grams
- BODY WEIGHT ([1]; males, G5 20 mg/kg + High fat diet, Day 8 (obesity induction, before dosing)): 26.66 ± 1.73 grams
- BODY WEIGHT ([1]; males, G5 20 mg/kg + High fat diet, Day 15 (obesity induction, before dosing)): 28.94*^a ± 1.59^ grams
- BODY WEIGHT ([1]; males, G5 20 mg/kg + High fat diet, Day 22 (obesity induction, before dosing)): 30.64**^a ± 1.16 grams
- BODY WEIGHT ([1]; males, G5 20 mg/kg + High fat diet, Day 29 (start of daily dosing)): 31.86***^a ± grams
- BODY WEIGHT ([1]; males, G5 20 mg/kg + High fat diet, Day 36 (dosing Day 29-56)): 31.48*^b ± grams
- BODY WEIGHT ([1]; males, G5 20 mg/kg + High fat diet, Day 43 (dosing Day 29-56)): 29.12***^b ± grams
- BODY WEIGHT ([1]; males, G5 20 mg/kg + High fat diet, Day 50 (dosing Day 29-56)): 27.74***^b ± grams
- BODY WEIGHT ([1]; males, G5 20 mg/kg + High fat diet, Day 56 (dosing Day 29-56)): 27.54***^b ± grams
- size of adipocytes [2]: remarkable reduction
